In US9695155B2, “Herbicidal substituted pyrimidinyloxy benzene compounds” (E. I. DU PONT DE NEMOURS AND COMPANY, priority 2013, dated 2017):

What was measured:
[1] = system: galium; test: Test D preemergence; format: in vivo, Galium aparine; details: Galium, pre-emergence
In short: (§1)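 Visual rating vs untreated controls, 0 = no effect, 100 = complete control, taken 7–21 d after treatment. Pre: silt loam soil. Post: potting medium, plants 2–18 cm, 1–4 leaf. Formulation: non-phytotoxic solvent mix + surfactant.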

[2] = system: green foxtail; test: Test D postemergence; format: in vivo, Setaria viridis; details: Setaria viridis, post-emergence
In short: as §1

[3] = system: waterhemp_RES2 (ALS & HPPD resistant common waterhemp); test: Test E postemergence; format: in vivo, Amaranthus rudis; details: Amaranthus tuberculatus, post-emergence, read-out: Plant response rating, Waterhemp_RES2
In short: (§2)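 Compound in a non-phytotoxic solvent mixture with surfactant was applied preemergence to seeds in silt loam soil, or postemergence to plants 2 to 18 cm tall grown in peat-based potting medium. Plants were kept in a greenhouse for 14 to 21 days, then rated visually against untreated controls on a 0 (no effect) to 100 (complete control) scale.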

[4] = system: waterhemp; test: Test E postemergence; format: in vivo, Amaranthus rudis; details: Amaranthus tuberculatus, post-emergence, read-out: Plant response rating, Waterhemp
In short: as §2

[5] = system: sandbur; test: Test E postemergence; format: in vivo, Cenchrus echinatus; details: Cenchrus echinatus, post-emergence, read-out: Plant response rating, Sandbur
In short: as §2

[6] = system: chamomile; test: Test D postemergence; format: in vivo, Matricaria inodora; details: Tripleurospermum inodorum, post-emergence
In short: as §1

[7] = system: windgrass; test: Test D preemergence; format: in vivo, Apera spica-venti; details: Apera spica-venti, pre-emergence
In short: as §1

[8] = system: field violet; test: Test D preemergence; format: in vivo, Viola arvensis; details: Viola arvensis, pre-emergence
In short: as §1

[9] = system: field poppy; test: Test D preemergence; format: in vivo, Papaver rhoeas; details: Papaver rhoeas, pre-emergence
In short: as §1

[10] = system: winter wheat; test: Test D postemergence; format: in vivo, Triticum aestivum; details: Triticum aestivum, post-emergence
In short: as §1

[11] = system: spring wheat; test: Test D postemergence; format: in vivo, Triticum aestivum; details: Triticum aestivum, post-emergence
In short: as §1

[12] = system: kochia; test: Test D preemergence; format: in vivo, Kochia scoparia; details: Bassia scoparia, pre-emergence
In short: as §1

[13] = system: wild oat; test: Test D preemergence; format: in vivo, Avena fatua; details: Avena fatua, pre-emergence
In short: as §1

[14] = system: chamomile; test: Test D preemergence; format: in vivo, Matricaria inodora; details: Tripleurospermum inodorum, pre-emergence
In short: as §1

[15] = Postemergence, 31 g ai/ha, scale 0 to 100
[16] = Postemergence, 62 g ai/ha, scale 0 to 100
[17] = Postemergence, 125 g ai/ha, scale 0 to 100
[18] = postemergence, 16 g ai/ha, scale 0 to 100, 0 no effect, 100 complete control
[19] = postemergence, 8 g ai/ha, scale 0 to 100, 0 no effect, 100 complete control

Clc1cnc(Oc2ccccc2-n2cc(Br)cn2)nc1 [Compound 7, 2-[2-(4-bromo-1H-pyrazol-1-yl)phenoxy]-5-chloropyrimidine]
20%: pest or weed control at 62 g/ha ([1]; 62 g ai/ha, scale 0-100, read-out: Plant response rating, Galium) | pest or weed control at 250 g/ha ([2]; 250 g ai/ha, scale 0 to 100 (0 no effect, 100 complete control), read-out: Plant response rating, Foxtail, Green) | pest or weed control at 62 g/ha ([8]; 62 g ai/ha, scale 0-100, read-out: Plant response rating, Field Violet) | pest or weed control at 125 g/ha ([14]; 125 g ai/ha, scale 0-100, read-out: Plant response rating, Chamomile)
40%: pest or weed control at 250 g/ha ([1]; 250 g ai/ha, scale 0-100, read-out: Plant response rating, Galium)
0%: pest or weed control at 16 g/ha ([1]; 16 g ai/ha, scale 0 (no effect) to 100 (complete control), read-out: Plant response rating, Galium) | pest or weed control at 31 g/ha ([1]; 31 g ai/ha, scale 0-100, read-out: Plant response rating, Galium) | pest or weed control at 16 g/ha ([2]; 16 g ai/ha, scale 0-100, read-out: Plant response rating, Foxtail, Green) | pest or weed control at 31 g/ha ([2]; 31 g ai/ha, scale 0 to 100 (0 no effect, 100 complete control), read-out: Plant response rating, Foxtail, Green) | pest or weed control at 62 g/ha ([2]; 62 g ai/ha, scale 0 to 100 (0 no effect, 100 complete control), read-out: Plant response rating, Foxtail, Green) | pest or weed control at 31 g/ha [5, 15] | pest or weed control at 62 g/ha [5, 16] | pest or weed control at 125 g/ha [5, 17] | pest or weed control at 8 g/ha [5, 19] | pest or weed control at 16 g/ha [5, 18] | pest or weed control at 16 g/ha ([6]; 16 g ai/ha, scale 0-100, read-out: Plant response rating, Chamomile) | pest or weed control at 31 g/ha ([6]; 31 g ai/ha, scale 0 to 100 (0 no effect, 100 complete control), read-out: Plant response rating, Chamomile) | pest or weed control at 62 g/ha ([6]; 62 g ai/ha, scale 0 to 100 (0 no effect, 100 complete control), read-out: Plant response rating, Chamomile) | pest or weed control at 125 g/ha ([6]; 125 g ai/ha, scale 0 to 100 (0 no effect, 100 complete control), read-out: Plant response rating, Chamomile) | pest or weed control at 250 g/ha ([6]; 250 g ai/ha, scale 0 to 100 (0 no effect, 100 complete control), read-out: Plant response rating, Chamomile) | pest or weed control at 16 g/ha ([7]; 16 g ai/ha, scale 0 (no effect) to 100 (complete control), read-out: Plant response rating, Windgrass) | pest or weed control at 31 g/ha ([7]; 31 g ai/ha, scale 0 (no effect) to 100 (complete control), read-out: Plant response rating, Windgrass) | pest or weed control at 62 g/ha ([7]; 62 g ai/ha, scale 0-100, read-out: Plant response rating, Windgrass) | pest or weed control at 125 g/ha ([7]; 125 g ai/ha, scale 0-100, read-out: Plant response rating, Windgrass) | pest or weed control at 16 g/ha ([8]; 16 g ai/ha, scale 0 (no effect) to 100 (complete control), read-out: Plant response rating, Field Violet) | pest or weed control at 31 g/ha ([8]; 31 g ai/ha, scale 0-100, read-out: Plant response rating, Field Violet) | pest or weed control at 16 g/ha ([9]; 16 g ai/ha, scale 0 (no effect) to 100 (complete control), read-out: Plant response rating, Field Poppy) | pest or weed control at 31 g/ha ([9]; 31 g ai/ha, scale 0-100, read-out: Plant response rating, Field Poppy) | plant injury at 16 g/ha ([10]; 16 g ai/ha, scale 0-100, read-out: Plant response rating, Wheat, Winter) | plant injury at 31 g/ha ([10]; 31 g ai/ha, scale 0 to 100 (0 no effect, 100 complete control), read-out: Plant response rating, Wheat, Winter) | plant injury at 62 g/ha ([10]; 62 g ai/ha, scale 0 to 100 (0 no effect, 100 complete control), read-out: Plant response rating, Wheat, Winter) | plant injury at 16 g/ha ([11]; 16 g ai/ha, scale 0-100, read-out: Plant response rating, Wheat, Spring) | plant injury at 31 g/ha ([11]; 31 g ai/ha, scale 0 to 100 (0 no effect, 100 complete control), read-out: Plant response rating, Wheat, Spring) | plant injury at 62 g/ha ([11]; 62 g ai/ha, scale 0 to 100 (0 no effect, 100 complete control), read-out: Plant response rating, Wheat, Spring) | pest or weed control at 16 g/ha ([12]; 16 g ai/ha, scale 0 (no effect) to 100 (complete control), read-out: Plant response rating, Kochia) | pest or weed control at 31 g/ha ([12]; 31 g ai/ha, scale 0-100, read-out: Plant response rating, Kochia) | pest or weed control at 62 g/ha ([12]; 62 g ai/ha, scale 0-100, read-out: Plant response rating, Kochia) | pest or weed control at 125 g/ha ([12]; 125 g ai/ha, scale 0-100, read-out: Plant response rating, Kochia) | pest or weed control at 16 g/ha ([13]; 16 g ai/ha, scale 0 (no effect) to 100 (complete control), read-out: Plant response rating, Oat, Wild) | pest or weed control at 31 g/ha ([13]; 31 g ai/ha, scale 0-100, read-out: Plant response rating, Oat, Wild) | pest or weed control at 62 g/ha ([13]; 62 g ai/ha, scale 0-100, read-out: Plant response rating, Oat, Wild) | pest or weed control at 16 g/ha ([14]; 16 g ai/ha, scale 0 (no effect) to 100 (complete control), read-out: Plant response rating, Chamomile) | pest or weed control at 31 g/ha ([14]; 31 g ai/ha, scale 0-100, read-out: Plant response rating, Chamomile) | pest or weed control at 62 g/ha ([14]; 62 g ai/ha, scale 0-100, read-out: Plant response rating, Chamomile)
90%: pest or weed control at 62 g/ha [3, 16] | pest or weed control at 31 g/ha [4, 15] | pest or weed control at 62 g/ha [4, 16] | pest or weed control at 125 g/ha [4, 17]
100%: pest or weed control at 250 g/ha ([9]; 250 g ai/ha, scale 0-100, read-out: Plant response rating, Field Poppy)
10%: pest or weed control at 125 g/ha ([2]; 125 g ai/ha, scale 0 to 100 (0 no effect, 100 complete control), read-out: Plant response rating, Foxtail, Green) | plant injury at 125 g/ha ([10]; 125 g ai/ha, scale 0 to 100 (0 no effect, 100 complete control), read-out: Plant response rating, Wheat, Winter) | plant injury at 250 g/ha ([10]; 250 g ai/ha, scale 0 to 100 (0 no effect, 100 complete control), read-out: Plant response rating, Wheat, Winter) | plant injury at 125 g/ha ([11]; 125 g ai/ha, scale 0 to 100 (0 no effect, 100 complete control), read-out: Plant response rating, Wheat, Spring) | plant injury at 250 g/ha ([11]; 250 g ai/ha, scale 0 to 100 (0 no effect, 100 complete control), read-out: Plant response rating, Wheat, Spring) | pest or weed control at 125 g/ha ([13]; 125 g ai/ha, scale 0-100, read-out: Plant response rating, Oat, Wild) | pest or weed control at 250 g/ha ([13]; 250 g ai/ha, scale 0-100, read-out: Plant response rating, Oat, Wild)
60%: pest or weed control at 125 g/ha ([9]; 125 g ai/ha, scale 0-100, read-out: Plant response rating, Field Poppy)
95%: pest or weed control at 125 g/ha [3, 17]
30%: pest or weed control at 125 g/ha ([1]; 125 g ai/ha, scale 0-100, read-out: Plant response rating, Galium) | pest or weed control at 250 g/ha ([7]; 250 g ai/ha, scale 0-100, read-out: Plant response rating, Windgrass) | pest or weed control at 62 g/ha ([9]; 62 g ai/ha, scale 0-100, read-out: Plant response rating, Field Poppy)
75%: pest or weed control at 16 g/ha [3, 18]
25%: pest or weed control at 250 g/ha ([14]; 250 g ai/ha, scale 0-100, read-out: Plant response rating, Chamomile)
70%: pest or weed control at 8 g/ha [4, 19] | pest or weed control at 125 g/ha ([8]; 125 g ai/ha, scale 0-100, read-out: Plant response rating, Field Violet) | pest or weed control at 250 g/ha ([12]; 250 g ai/ha, scale 0-100, read-out: Plant response rating, Kochia)
80%: pest or weed control at 31 g/ha [3, 15] | pest or weed control at 16 g/ha [4, 18] | pest or weed control at 250 g/ha ([8]; 250 g ai/ha, scale 0-100, read-out: Plant response rating, Field Violet)
